The values below come from patent US6997270B2, “Compounds and method for generating a highly efficient membrane in water-based drilling fluids” (Halliburton Energy Services, Inc., priority 2000, dated 2006).

Bounds are passed on as bounds.

Data set [1] is described as follows: Membrane efficiency screening test (membrane efficiency screening equipment). The settings on record: about 25° Celsius, about 15 MPa. On the procedure: Two types of test equipment are used for the present invention: (i) membrane efficiency screening equipment for tests conducted at 25° Celsius and the test solution at 15 MPa, and (ii) autonomous triaxial test equipment for tests conducted at temperatures above 25° Celsius and/or the test solution at 35 MPa.
The membrane efficiency screening equipment has six test cells. Six different test solutions can be tested under simulated downhole pressure conditions, at any one time with independent, individual test cell control. Referring to FIG. 4, the parts of the cell are shown as follows: Cell-1; Base-2; Bleed Port-3; Confining Fluid Port-4; Downstream Pressure Line (pore fluid)-5; Upstream Pressure Line (test solution)-6; Knurl-7; Top Platen-8; Membrane-9; Sample-10; Bottom Platen-11; O-Rings-12; Collar-13; and Seal-14.
The cell of FIG. 4 has a confining pressure and pore pressure capacity of 35 MPa and 20 MPa respectively. The confining pressure is applied with a Haskel pump and controlled with a high precision stepping motor pump control system. […] Two separate high-pressure gas cylinders provide the upstream and downstream pressures which are controlled by high pressure regulators.
The test procedures for the membrane efficiency screening equipment are as follows: • (a) bleed top (downstream) and bottom (upstream) platens 8 and 11 with simulated pore fluid; • (b) place a sample 10 (25 mm diameter and approximately 10 mm long) between the platens 8 and 11; • (c) jacket the sample in a 1.0 mm thick Viton membrane 9; • (d) mount O-rings 12 over the jacket on the platens 8 and 11; • (e) mount the cell 1; • (f) fill the cell 1 with water; • (g) apply a confining pressure of 20 MPa (via port 4); • (h) apply a back (upstream) pressure of 10 MPa (via line 6) and check for flow across the (upstream) platen 8; • (i) open the downstream pressure valve (on line 5) if the (downstream) pressure is less than 10 MPa; • (j) when the downstream pressure has stabilised at 10 MPa (pressure change <50 kPa/hour, i.e. sample has consolidated), increase the upstream pressure to 15 MPa; • (k) when the downstream pressure has increased by at least 2 MPa (pressure transmitted from the upstream end), reduce the upstream pressure to 10 MPa; • (l) when the downstream pressure has stabilised at 10 MPa (pressure change <50 kPa/hour, i.e. sample has reconsolidated), displace the pore fluid at the upstream end with the test solution at 15 MPa (water activity of test solution is not reduced with electrolyte, i.e. essentially the same as that of the shale); • (m) when the downstream pressure has increased and stabilised (pressure transmitted from the upstream end), displace the test solution (at the upstream end) with the lower water activity solution; • (n) adjust the lower water activity solution circulation rate; and • (o) terminate the test when a maximum decrease in the downstream pressure is observed.
The membrane efficiency obtained from a test is defined as percentage ratio of the maximum differential pressure developed across the shale sample (upstream pressure minus minimum downstream pressure during chemical potential stage) and the theoretical osmotic pressure of the test solution-shale system. The theoretical osmotic pressure is given by: [formula] where Π=osmotic pressure (kPa) • R=gas constant (0.083 liter atm mol^−1 ° K^−1) • T=absolute temperature (° K) • V=partial molar volume of water (0.018 litre mol^−1) • Asol=water activity of lower water activity solution • Ash=water activity of shale

The nature of data set [2]: Phase transition to a hexagonal phase (aqueous concentration). The settings on record: about pH 10; about 25° Celsius. The format is physicochemical.
The nature of data set [3]: Membrane efficiency test in autonomous triaxial test equipment (temperatures above 25° Celsius and/or 35 MPa). The protocol: Based on the aforementioned fundamental understanding of the membrane generation mechanisms for acid-base species, we have discovered a range of novel compounds for use in water-based drilling fluids that have the capacity to generate a highly efficient membrane on the borehole wall in argillaceous formations. […] Two types of test equipment are used for the present invention: (i) membrane efficiency screening equipment for tests conducted at 25° Celsius and the test solution at 15 MPa, and (ii) autonomous triaxial test equipment for tests conducted at temperatures above 25° Celsius and/or the test solution at 35 MPa.
Referring to FIG. 5, the parts of the cell are shown as follows: Top Plate-20; Bottom Platen-21; Load Cell-22; Top Cap-23; Downstream Pore Pressure Port-24; Removable Cell Body-25; Radial Gauges-26; LVDT-27; Upstream Pore Pressure Port-28; Clamping Ring-29; Upstream Flush Pressure Port-30; O-Ring-31; Membrane-32; Temperature Sensor-33; and Sample 34.
The cell of FIG. 5 has a confining pressure and pore pressure capacity of 70 MPa.
The instruments used to measure the behaviour of the test sample 34 are as follows: • (a) two diametrically-opposed LVDTs (Linear Variable Differential Transformers) 27 mounted between the sample end platens to measure axial deformation of the sample 34; • (b) four cantilever (orthogonal) radial gauges 26 mounted at mid-height of the sample 34 to measure radial deformation; • (c) two thermal sensors 33 to measure sample 34 top and bottom temperatures; • (d) a load cell 22 located underneath the bottom platen 21 to measure axial deviatoric load (not used); • (e) a pressure transducer to measure cell (confining) pressure; and • (f) two pressure transducers to measure pore pressure at both ends of the sample 34.
A computer-controlled system was used to control the cell and pore pressures with stepping motor pumps, and to perform data acquisition. During the test, the cell temperature was maintained constant by placing the autonomous triaxial cell in a temperature-controlled oven. […]

For data set [4] the following is noted: cited from earlier work.

Take `CCCCCCCC/C=C\CCCCCCCC(=O)[O-].C[N+](C)(C)C` [Tetramethylammonium oleate]: the Membrane efficiency result in data set [1] (about 5 to about 10 wt %, pH about 9, water activity reduced with 33.4 wt % tetramethylammonium chloride) is on record as “up to 44%”. The “Concentration at which phase transition to a hexagonal phase occurs” value in data set [2] is listed as “about 20 wt %”.

With sodium methyl siliconate, the Membrane efficiency result in data set [1] (about 5 to about 10 wt %, pH about 11.9 to about 12.6, 12 wt % sodium chloride or 16 wt % potassium chloride) was “up to 86%”. Also, the “Change of membrane generation capacity with pH” value (“Change” for short) in data set [1] (for a given concentration) is given as “increased greatly when pH was reduced from about 12.6 to about 11.9”.

Potassium methyl siliconate: the Membrane efficiency entry in data set [1] (about 5 to about 10 wt %, pH about 11.95 to about 12.8, 12, 15 or 20 wt % sodium chloride) is “up to 80%”; in data set [3] (test solutions at about 35 MPa, about 40° Celsius to about 80° Celsius) it was “approximately 54%”. Also, the “Change” value in data set [1] (for a given concentration) is listed as “increased greatly when pH was reduced from about 12.8 to about 11.95”. The “Effect of temperature on membrane generation capacity” value in data set [3] (temperature up to about 80° Celsius) is given as “not significantly affected by temperature of up to about 80° Celsius”. The “Effect of test solution pressure on membrane generation capacity” value in data set [3] (test solutions at about 35 MPa) was “only slightly reduced”.

silicic acid: the “Change” value in data set [1] (about 1 wt % and about 2.5 wt %) was “essentially the same between pH of about 11.15 and about 12.5”; in data set [1] (about 5 wt % to about 10 wt %), “increases with increase in pH”. Moreover, the Membrane efficiency in data set [1] (all concentrations evaluated (about 1 to about 10 wt %), pH about 11.15 to about 12.5, 12 wt % sodium chloride) is on record as over 70%.

Consider `[Cl-].[K+]` [potassium chloride, reference compound], for which the Membrane efficiency entry in data set [1] (stock solution about 26.3 wt % potassium chloride, pH not adjusted) was “about 9%”.

For the compound `C[Si](O)(O)O` [methyl silanetriol], the pKa entry in data set [4] is “about 11”.

For the compound `Oc1ccc2ccccc2c1` [2-naphthol], the “Change” value in data set [1] (for a given concentration) was “did not change significantly between the pH range”.

Turning to `C[N+](C)(C)C.[Cl-]` [tetramethylammonium chloride, reference compound], the Membrane efficiency result in data set [1] (stock solution about 33.4 wt % tetramethylammonium chloride, pH not adjusted) is on record as “about 8%”.

Turning to `CCCCCCCCCCCC(=O)[O-].C[N+](C)(C)C` [tetramethylammonium laurate], the Membrane efficiency entry in data set [1] (about 5 to about 10 wt %, pH about 7.6 to about 11.5, water activity reduced with 33.4 wt % tetramethylammonium chloride) was “up to 57%”. In addition, the “Change” value in data set [1] (for a given concentration) is “increased significantly when pH was increased from about 7.6 to about 11.5”. Further, the “Concentration at which phase transition to a hexagonal phase occurs” value in data set [2] is “about 20 wt %”.
